Laboratory results published in paper PMC7170889, “Synthesis and evaluation of designed PKC modulators for enhanced cancer immunotherapy” (Nature Communications, 2020).

Assays:
PKCδ-GFP fusion protein = biological target: T1, PKCδ-GFP fusion protein (Homo sapiens, UniProt Q05655); test: PKCδ-GFP translocation assay in living CHO-k1 cells (confocal microscopy); type: cell-based, Chinese hamster; conditions: for % Translocation (maximum translocation of PKCδ-GFP to the plasma membrane) / Emax at 1 µM / minimum effective concentration required to induce translocation of PKC-GFP to the membrane / Emax at 0.2 µM: CHO-k1 cells; for % Translocation (maximum translocation of PKCδ-GFP to the plasma membrane) / Emax at 1 µM / Emax at 0.2 µM: n = 3; for Emax at 1 µM: CHO-K1, 1000 nM compound; for Emax at 1 µM / Emax at 0.2 µM: read-out: % Translocation (maximum translocation of PKCδ-GFP to the plasma membrane); for minimum effective concentration required to induce translocation of PKC-GFP to the membrane: tested at 200 and 1000 nM; for Emax at 0.2 µM: CHO-K1, 200 nM compound
T1 construct: expressed in transfected cells; host or cells: CHO-k1 (Chinese hamster ovary, ATCC)
T1 sequence (Q05655 whole entry, the tested form may be a part): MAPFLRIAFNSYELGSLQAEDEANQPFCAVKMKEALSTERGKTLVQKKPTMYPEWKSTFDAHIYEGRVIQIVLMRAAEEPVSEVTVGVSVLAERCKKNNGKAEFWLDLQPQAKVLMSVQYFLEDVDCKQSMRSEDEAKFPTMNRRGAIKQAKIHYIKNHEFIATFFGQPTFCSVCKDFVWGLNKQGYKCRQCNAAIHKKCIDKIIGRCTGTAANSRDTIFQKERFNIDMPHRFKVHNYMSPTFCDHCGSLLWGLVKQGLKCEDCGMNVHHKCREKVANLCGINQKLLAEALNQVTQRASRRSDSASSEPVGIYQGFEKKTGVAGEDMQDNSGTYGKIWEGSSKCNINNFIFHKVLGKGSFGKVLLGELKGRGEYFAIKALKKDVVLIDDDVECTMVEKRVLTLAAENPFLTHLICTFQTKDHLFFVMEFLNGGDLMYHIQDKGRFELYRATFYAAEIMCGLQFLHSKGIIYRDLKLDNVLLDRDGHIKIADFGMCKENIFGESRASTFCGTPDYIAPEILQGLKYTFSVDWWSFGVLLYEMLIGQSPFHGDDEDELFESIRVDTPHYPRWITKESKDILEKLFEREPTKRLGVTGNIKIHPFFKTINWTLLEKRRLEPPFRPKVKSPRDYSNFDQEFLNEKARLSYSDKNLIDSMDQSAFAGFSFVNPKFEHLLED
Description: (§1) With a panel of compounds bearing diverse functionality at C13, we began to explore how these modifications affect PKC binding and biological function. Because an obvious prerequisite for PKC pathway involvement is binding to PKC, compounds were initially evaluated for PKC affinity in a cell-free competitive binding assay with tritiated phorbol dibutyrate ([^3H]-PDBu). Assays were performed with representative members of both the conventional (PKCα) and novel (PKCδ) PKC families. Subsequently, compounds were assayed for PKC isoform translocation in real time in living cells using an optical assay. Translocation to the plasma membrane is the hallmark of PKC activation[18],[57],[60] and therefore monitoring the subcellular localization of a PKCδ-GFP fusion protein via confocal microscopy offers a convenient method for determining whether a compound enters a cell and engages its PKC isoform target. Finally and of clinical significance, we also determined the effect of compounds on CD22 surface expression in vitro in NALM6 cells, an ALL cell line previously studied in connection with CD22-targeted CAR T cell therapy, and two additional lymphoma cell lines[11],[31],[65].
Scale bar represents 25 μm. Experiments performed in n = 3 biological replicates. b–d Cytosolic fluorescence normalized to t = 0 (time immediately prior to addition of compound to media) and plotted against time. Error bars excluded for clarity (data presented as the mean of n = 3 biological replicates). Individual curves with error bars included in Supplementary Information.
PKCδ-GFP Translocation Assay Protocol
Chinese hamster ovary factor K1 (CHO-k1, ATCC) cells were cultured in F-12 Kaighn’s media (Hyclone, 10% fetal bovine serum, 1% penicillin/streptomycin added, reffered to as F-12 +/+ below) at 37 ° C in an incubator (5% CO2). Cell cultures were maintained by splitting cells 1:3 when they reached ~75-100% confluence (every 2-3 days) as follows:
(Gibco) was used to remove the cells from the culture flask (T75, Falcon). 1 mL of the cell suspension was then added to 9 mL of fresh F-12 +/+ and the sample was sub-cultured until reaching confluence (~2-3 days).
Cells were counted using a Countess II Automated Cell Counter (Fisher). The cell suspension was diluted to 240,000 cells/mL with fresh F-12 +/+ and 2.5 mL of this diluted stock was added to one well in a 6-well plate. The cells were then cultured for 24 hours.
Cells were transfected with Lipofectamine 2000 reagent (Invitrogen) or DA 13:11 at a 10:1 charge […]
F-12 +/+ was aspirated and cells were washed with F-12 -/-. 2 mL of fresh F-12 -/- was then added to each well, taking care not to disturb adherent cells. For each well of CHO-k1 cells, 12.5 µL Lipofectamine 2000 reagent (Invitrogen) was added to 250 µL Opti-MEM reduced serum media (Invitrogen) in a polypropylene tube and incubated for 20 minutes at RT. Meanwhile, for each well, 4 µg of PKCδ-GFP pDNA and 250 µL Opti-MEM reduced serum media was added to a separate polypropylene tube. 250 µL of the Lipofectamine 2000 suspension was added to the DNA suspension and the solution incubated for 30 minutes at RT. 500 µL of the Lipofectamine/DNA suspension was added to the respective wells of the 6-well plate. The cells were then incubated at 37 ° C (5% CO2) for ~24 hrs.
F-12 +/+ was aspirated and cells were washed with F-12 -/-. 2.4 mL of fresh F-12 -/- was then added to each well, taking care not to disturb adherent cells. A 4 µg aliquot of PKCδ-GFP pDNA was added to PBS (pH 5.5, final volume 100 µL). 5.6 µL of DA 13:11 (2 mM stock in DMSO) was then added to the DNA solution, and the mixture was gently mixed (by flicking) for 20 seconds, at which point it was added directly to the respective wells of the 6-well plate.

PKC = PKC competitive binding assay, isoform not specified; parameters: species or system human
Description: as §1
PKC Binding Assay Protocol […]
competition with 3H-phorbol-12,13-dibutyrate (3H-PDBu) as described below. This procedure entails a glass-fiber filtration method to determine bound radioligand.
Preparation of PKC binding assay buffer
To a 50 mL polypropylene tube was added Tris-HCl (pH 7.4, 1 M, 1 mL), KCl (1 M, 2 mL), CaCl2 (0.1 M, 30 μL), and bovine serum albumin (BSA, 40 mg, Sigma-Aldrich). This mixture was diluted to 20 mL with deionized H2O and mixed gently. The buffer was stored on ice until use. The final […]
Supplementary Table1. PKC binding assay buffer composition.
Preparation of phosphatidylserine (PS) vesicles
For every two assays, 3.5 mg phosphatidylserine (Avanti Polar Lipids, porcine, 25 mg/mL CHCl3 solution) was concentrated by removing chloroform under a stream of nitrogen followed by reduced pressure. The solid PS was suspended as vesicles in freshly prepared PKC binding assay buffer (3.5 mL) by sonicating six times for 30 sec, with a 30 sec rest between sonications (Branson Sonifier 250, power = 2, 50% duty cycle). The resulting milky cloudy mixture (1 mg/mL) was stored […]
Preparation of PKC isoform solution
Assay PKC was prepared by dissolving a 4 μg aliquot of the indicated recombinant human PKC isoform (Invitrogen) into 11.6 mL of PKC binding assay buffer (this amount is sufficient for two assays). The diluted PKC was stored on ice for immediate use.
Preparation of 3H-PDBu solution
3H-PDBu (American Radiolabeled Chemicals, Inc.; 1 mCi/mL acetone solution; specific activity: […]) was diluted 10-fold with DMSO. The resulting 500 nM stock solution was further diluted with DMSO to 30 nM.
Preparation of analog compound dilutions
Compound dilutions were prepared by serially diluting from a chosen "high" concentration by factors of 3 or 4. For each analog compound, seven concentrations were used to define the […]
To a polypropylene tube was added 3.3 mL of 1 mg/mL PS vesicles solution, 11 mL of PKC isoform solution, and 1.1 mL of 30 nM 3H-PDBu solution were added. The resulting solution was vortexed to mix and stored on ice.
PKC binding assay protocol
- Glass-fiber filters (Whatman GF/B) were prepared by soaking them in a solution of […]

[1] = tested on: CD22 surface expression in NALM6 cells; test: CD22 surface expression in NALM6 cells (flow cytometry); type: cell-based, human; conditions: NALM6 cells at 1 nM relative to DMSO control; 24 h incubation, washout, 24 h sub-culture; n = 3
Description: CD22 Surface Expression Protocol – NALM6 Cells […]
unless otherwise noted below) at 37 ° C in an incubator (5% CO2). Cell cultures were maintained […]
Cell suspension from a confluent T75 flask (Fisher) was transferred to a 15 mL falcon tube and centrifuged at 1100 rpm for 7 minutes. The supernatant was aspirated, and the cell pellet was […]
Cells were counted using a Countess II Automated Cell
199 µL of this stock was added to 24 wells (enough for triplicate measurements for 8 different experimental conditions) in a 96-well plate. Dosing was […]
each experiment. 1 µL of DMSO or the appropriate stock solution of compound in DMSO was added to each well. Cells were incubated for 24 hours, at which point the cell suspensions were transferred to 1.5 mL Eppendorf tubes and diluted with 1.0 mL of PBS (Hyclone, without Ca2+ or Mg2+). Samples were centrifuged at 2000 rpm for 5 min at RT. The supernatant was aspirated, […]
Cells were sub-cultured between 2 […]
surface expression was assayed by flow cytometry.
Cells from one well were counted using a Countess II Automated Cell Counter (Fisher). ~200,000 – 300,000 cells from each well were added to 1.5 mL Eppendorf tubes containing PBS (final volume ~1.2 mL). The cell suspensions were centrifuged at 1500 rpm for 7 minutes at 4 °C. The supernatant was aspirated, and the cell pellet was resuspended in 99 µL of pre-chilled FACS […]
buffer (0.5% w/v BSA in PBS). […]
minutes. Samples were then diluted with an additional 1.0 mL of FACS buffer and centrifuged at 1500 rpm for 7 minutes at 4 °C. The supernatant was aspirated, the cell pellets were resuspended in 200 µL FACS buffer, and the resulting suspensions were transferred to FACS tubes (Fisher, […]
Cells were stained with DAPI and CD22 surface expression was analyzed using the FACScan Analyzer at the Stanford Shared FACS Facility. Data analysis was performed using FlowJo and Microsoft Excel.

Q: How did the “% Translocation (maximum translocation of PKCδ-GFP to the plasma membrane)” value (PKCδ-GFP fusion protein; 1000 nM compound) turn out when `CCCCCC#CC(=O)O[C@H]1/C(=C/C(=O)OC)C[C@H]2C[C@H]([C@@H](C)O)OC(=O)C[C@H](O)C[C@@H]3C[C@H](OC(C)=O)C(C)(C)[C@](O)(C[C@@H]4C[C@@](O)(CO)C[C@H](/C=C/C(C)(C)[C@]1(O)O2)O4)O3` [SUW203] was run?
A: 50%

Q: What about the Emax at 1 µM (PKCδ-GFP fusion protein) of the same molecule?
A: ~50%

Q: What about the “minimum effective concentration required to induce translocation of PKC-GFP to the membrane” value (from here on “minimum effective concentration required”) (PKCδ-GFP fusion protein) of the same molecule?
A: 1000 nM

Q: What about the “PKC binding affinity in words” value (PKC; conventional and novel PKC isoforms) of the same molecule?
A: single-digit nanomolar

Q: `CCC/C=C/C=C/C(=O)O[C@H]1/C(=C/C(=O)OC)C[C@H]2C[C@H]([C@@H](C)O)OC(=O)C[C@H](O)C[C@@H]3C[C@H](OC(C)=O)C(C)(C)[C@](O)(C[C@@H]4C[C@H](OC(C)=O)C[C@H](/C=C/C(C)(C)[C@]1(O)O2)O4)O3` [SUW206] was tested. Which Emax at 0.2 µM (PKCδ-GFP fusion protein) did it give?
A: 60%

Q: What about the “minimum effective concentration required” value (PKCδ-GFP fusion protein) of the same molecule?
A: 200 nM

Q: For `CCCC=CC=CC(=O)OC1C(=CC(=O)OC)CC2CC(C(C)O)OC(=O)CC(O)CC3CC(OC(C)=O)C(C)(C)C(O)(CC4CC(OC(=O)CCC(=O)O)CC(C=CC(C)(C)C1(O)O2)O4)O3` (centres unmarked) [SUW211], which Emax at 1 µM (PKCδ-GFP fusion protein) is on record?
A: 20%

Q: What about the “minimum effective concentration required” value (PKCδ-GFP fusion protein) of the same molecule?
A: 1000 nM

Q: What about the “sustained translocation of PKC” value (PKCδ-GFP fusion protein; at up to 1000 nM) of the same molecule?
A: did not achieve sustained translocation of PKC

Q: What about the “decrease in affinity to PKC” value (PKC; charged substituents at C13, Table 1 data) of the same molecule?
A: 20-100 fold

Q: With `CCCC=CC=CC(=O)OC1C(=CC(=O)OC)CC2CC(C(C)O)OC(=O)CC(O)CC3CC(OC(C)=O)C(C)(C)C(O)(CC4CC(=CC(=O)OCc5ccccc5)CC(C=CC(C)(C)C1(O)O2)O4)O3` (centres unmarked) [SUW220] as the molecule, how does the “% Translocation (maximum translocation of PKCδ-GFP to the plasma membrane)” value (PKCδ-GFP fusion protein; 1000 nM compound) read?
A: 50%

Q: And the “minimum effective concentration required” value (PKCδ-GFP fusion protein)?
A: 1000 nM

Q: How did the Emax at 0.2 µM (PKCδ-GFP fusion protein) turn out when `CCCCCCCC(=O)O[C@H]1/C(=C/C(=O)OC)C[C@H]2C[C@H]([C@@H](C)O)OC(=O)C[C@H](O)C[C@@H]3C[C@H](OC(C)=O)C(C)(C)[C@](O)(C[C@@H]4C[C@@H](C)C[C@H](/C=C/C(C)(C)[C@]1(O)O2)O4)O3` [SUW226] was run?
A: 75%

Q: And the “minimum effective concentration required” value (PKCδ-GFP fusion protein)?
A: 200 nM

Q: For `C=CCOC(=O)/C=C1\C[C@H]2C[C@]3(O)O[C@H](C[C@@H](O)CC(=O)O[C@@H]([C@@H](C)O)C[C@@H]4C/C(=C\C(=O)OC)[C@H](OC(=O)/C=C/C=C/CCC)[C@@](O)(O4)C(C)(C)/C=C/[C@@H](C1)O2)C[C@H](OC(C)=O)C3(C)C` [SUW230], which “% Translocation (maximum translocation of PKCδ-GFP to the plasma membrane)” value (PKCδ-GFP fusion protein; 200 nM compound) is on record?
A: 65%

Q: What about the “minimum effective concentration required” value (PKCδ-GFP fusion protein) of the same molecule?
A: 200 nM

Q: What about the “Fold increase CD22 expression” value [1] of the same molecule?
A: 1.62 fold
